Test results as given in PMC11232109, “Synthesis, anticancer evaluation of novel hybrid pyrazole-based chalcones, molecular docking, DNA fragmentation, and gene expression: in vitro studies” (RSC Advances, 2024).
Read-outs that look alike come from different tables or passages of the source. Marks after values point to notes of the source that are not given here.

Legend:
[1] = MTT assay, normal cell line BJ1; type: cell-based; conditions: human, at 100 μg ml^−1, 48 hours, read-out: (%) Mortality of BJ1
Experimental: (§1) The percentage of the cell viability treated with the newly synthesized compounds was evaluated using MTT assay (3-(4,5-dimethylthiazol-2-yl)-2,5-diphenyl tetrazolium bromide). All the subsequent steps were done in a sterile Laminar flow class II biosafety cabinet (Baker, SG406INT, Sanford, ME, USA). DMEM was used as a suspension medium for breast cancer (MCF7), prostate cancer (PC3), and pancreatic cancer (PACA2), while normal cell line (BJ1) was suspended in DMEM-F12 medium, a 1% antibiotic-antimycotic mixture (10 000 U ml^−1 potassium penicillin, 10 000 μg ml^−1 streptomycin sulfate, and 25 μg ml^−1 amphotericin B), and 1% L-glutamine at 37 °C under 5% CO2.
(§2) Cells were cultured for 10 days and then seeded at a concentration of 10 × 10^4 cells per well in fresh complete growth medium in 96-well microtiter plastic plates at 37 °C for 24 hours under 5% CO2 using a water-jacketed carbon dioxide incubator (Sheldon, TC2323). Media were aspirated, serum-free fresh medium was added, and cells were incubated either alone (negative control) or with different concentrations of the synthesized chalcone derivatives to a final concentration of (100–50–25–12.5–6.25–3.125–0.78 and 1.56 μg ml^−1). After incubation for 48 hours, the medium was aspirated and 40 μl of MTT salt ([…]) was added to each well and incubated for another four hours at 37 °C under 5% CO2. To stop the reaction and dissolve the formed crystals, 200 μl of 10% sodium dodecyl sulfate (SDS) in deionized water was added to each well and incubated overnight at 37 °C.
(§3) The absorbance was then measured at 595 nm and a reference wavelength of 620 nm using a microplate multi-well reader (Bio-Rad Laboratories Inc., model 3350). Statistical significance was tested between the samples and the negative control (cells with vehicle) using an independent t-test using the SPSS 11 program. DMSO was the vehicle used for the dissolution of the synthesized chalcones, and its final concentration on the cells was less than 0.2%. The percentage of change in viability was calculated according to the formula: ((reading of extract/reading of negative control) − 1) × 100. A Probit analysis was carried out for the determination of IC50 using the SPSS 11 program.

PC3 (prostatic cancer) = test: MTT assay, PC3; type: cell-based
Experimental: as §1, §2, §3

MCF-7 = test: Comet assay (DNA damage), breast cancer cell line; type: cell-based, human; conditions: for DNA damaged cells% (mean ± SEM): MCF-7, comet assay, −ve 9.63 ± 0.64; for No. of cells, Comets: MCF-7, of 405 cells analyzed; for No. of cells, Class 0 / No. of cells, Class 1 / No. of cells, Class 2 / No. of cells, Class 3: MCF-7, of 405 cells; for No. of cells, Class 0: class 0 = no tail; for No. of cells, Class 1: class 1 = tail length < diameter of nucleus; for No. of cells, Class 2: class 2 = tail length between 1× and 2× the diameter of nucleus; for No. of cells, Class 3: class 3 = tail length > 2× the diameter of nucleus
Experimental: Olive et al. (1990) used pancreatic and breast cancer cell lines to measure the DNA damage using the comet test.[53] Approximately 1.5 × 10^4 cells were imbedded in 0.75% low-gelling-temperature agarose after trypsin treatment to generate a single-cell suspension, which was then quickly pipetted onto a pre-coated microscope slide. Cell samples were lysed in 0.5% SDS, 30 mM EDTA, pH 8.0, for four hours at 50 °C. Samples were electrophoresed for 25 minutes at 0.6 V cm^−1 after being rinsed overnight at room temperature in Tris/borate/EDTA buffer, pH 8.0. Propidium iodide was then added for staining. A fluorescent microscope equipped with a CCD camera was used to observe the slides, and 150 unique comet photos from each sample were examined to determine the tail moment, DNA content, and percentage of DNA in the tail. To find the fraction of cells with DNA damage that resemble comets in each sample, around 100 cells were analyzed. Based on perceived comet tail length migration and relative proportion of DNA in the nucleus, the non-overlapping cells were randomly chosen and visually assigned a score on an arbitrary scale of 0–3. Class 0 = no detectable DNA damage and no tail; class 1 = tail with a length less than the nucleus diameter; class 2 = tail with length between 1× and 2× the nuclear diameter; and class 3 = tail longer than 2× the nucleus diameter.[54]

[2] = tested on: PACA2 (pancreatic carcinoma); test: MTT assay, PACA2; type: cell-based; conditions: for cytotoxicity at 100 µg/mL / IC50: Homo sapiens; for IC50: 48 hours
Experimental: as §1, §2, §3

[3] = tested on: MCF7 (human breast adenocarcinoma); test: MTT assay, MCF7; type: cell-based; conditions: for cytotoxicity at 100 µg/mL / IC50: Homo sapiens; for IC50: 48 hours
Experimental: as §1, §2, §3

Cc1nn(-c2ccccc2)c(C=CC(=O)c2c(-c3cccs3)nn(-c3ccc([N+](=O)[O-])cc3)c2C)c1Cl [Compound 7d, 3-(4-Chloro-3-methyl-1-phenyl-1H-pyrazol-5-yl)-1-(5-methyl-1-(4-nitrophenyl)-3-(thiophen-2-yl)-1H-pyrazol-4-yl)prop-2-en-1-one]
cytotoxicity at 48 h, 100 μg ml^−1 ([1]; BJ1 normal skin fibroblasts): 12.3 ± 0.23% | cytotoxicity at 100 µg/mL (PC3 (prostatic cancer); Homo sapiens, 48 h, at 100 μg ml^−1, 48 hours, MTT, read-out: (%) Mortality of PC3): 70 to 80% | IC50 (PC3 (prostatic cancer); Homo sapiens, MTT, 48 hours): 66.9 ± 0.98 µM | cytotoxicity (PC3 (prostatic cancer); at 100 μg ml^−1, 48 hours, MTT, read-out: (%) Mortality of PC3): 70.6 ± 0.97% | DNA damaged cells% (mean ± SEM) (MCF-7): 25.93 ± 1.08^a % | No. of cells, Comets (MCF-7): 105 | No. of cells, Class 0 (MCF-7): 300 | No. of cells, Class 1 (MCF-7): 30 | No. of cells, Class 2 (MCF-7): 41 | No. of cells, Class 3 (MCF-7): 34 | cytotoxicity at 100 µg/mL ([2]; PaCa-2, 48 h, at 100 μg ml^−1, 48 hours, MTT, read-out: (%) Mortality of PACA2): 70 to 80% | IC50 ([2]; PaCa-2, MTT): 51.9 ± 0.29 µM | cytotoxicity ([2]; at 100 μg ml^−1, 48 hours, MTT, read-out: (%) Mortality of PACA2): 80.3 ± 19% | cytotoxicity at 100 µg/mL ([3]; MCF7, 48 h, at 100 μg ml^−1, 48 hours, MTT, read-out: (%) Mortality of MCF7): 70 to 80% | IC50 ([3]; MCF7, MTT): 42.6 ± 0.71 µM | cytotoxicity ([3]; at 100 μg ml^−1, 48 hours, MTT, read-out: (%) Mortality of MCF7): 71.2 ± 0.14%

Cc1c(C(=O)C=Cc2nn(-c3ccccc3)cc2-c2ccc([N+](=O)[O-])cc2)c(-c2cccs2)nn1-c1ccc([N+](=O)[O-])cc1 [Compound 9e, 1-(5-Methyl-1-(4-nitrophenyl)-3-(thiophen-2-yl)-1H-pyrazol-4-yl)-3-(4-(4-nitrophenyl)-1-phenyl-1H-pyrazol-3-yl)prop-2-en-1-one]
cytotoxicity at 48 h, 100 μg ml^−1 [1]: 5.6 ± 0.55% | cytotoxicity at 100 µg/mL (PC3 (prostatic cancer); Homo sapiens, 48 h, read-out: (%) Mortality of PC3): 5.3 ± 0.94% | cytotoxicity at 100 µg/mL ([2]; PaCa-2, 48 h, read-out: (%) Mortality of PACA2): 100% | IC50 ([2]; PaCa-2, MTT): 27.6 ± 0.33 µM | cytotoxicity at 100 µg/mL ([3]; MCF7, 48 h, read-out: (%) Mortality of MCF7): 14.2 ± 0.37% | IC50 ([3]; MCF7, MTT): 59.3 ± 0.85 µM

COc1cccc2c1C(=O)c1c(O)c3c(c(O)c1C2=O)C[C@@](O)(C(=O)CO)C[C@@H]3O[C@H]1C[C@H](N)[C@H](O)[C@H](C)O1 [Doxorubicin, reference compound]
cytotoxicity at 48 h, 100 μg ml^−1 ([1]; BJ1 normal skin fibroblasts): 100% | cytotoxicity at 100 µg/mL (PC3 (prostatic cancer); Homo sapiens, at 100 μg ml^−1, 48 hours, MTT, read-out: (%) Mortality of PC3): 100% | DNA damaged cells% (mean ± SEM) (MCF-7; listed as Dox): 21.98 ± 0.91^b % | No. of cells, Comets (MCF-7): 89 | No. of cells, Class 0 (MCF-7): 316 | No. of cells, Class 1 (MCF-7): 27 | No. of cells, Class 2 (MCF-7): 33 | No. of cells, Class 3 (MCF-7): 29 | cytotoxicity at 100 µg/mL ([2]; PaCa-2, at 100 μg ml^−1, 48 hours, MTT, read-out: (%) Mortality of PACA2): 100% | IC50 ([3]; MCF7, MTT): 48 ± 0.74 µM | cytotoxicity at 100 µg/mL ([3]; MCF7, at 100 μg ml^−1, 48 hours, MTT, read-out: (%) Mortality of MCF7): 100%
